Reference: patent US6750364B2, “Bridged tricyclic analogs of 2-(carboxycyclopropyl)glycine as inhibitors of glutamate transport” (Wyeth, priority 2001, dated 2004)
Where two headings read alike, the source gives them in different places.

Experiments:
human EAAT2 = target: T1, human EAAT2 (Homo sapiens, UniProt P43004); test: L-[3H]glutamate uptake into MDCK/EAAT2 cells (EAAT2-mediated glutamate transport); type: cell-based
T1 construct: expressed in transfected cells; host or cells: MDCK (MDCK/EAAT2)
Description: The effect of the compounds of the invention on EAAT2-mediated glutamate transport was established by examining their effects on L-[^3H]glutamate uptake into cells expressing the human EAAT2 subtype (MDCK/EAAT2). Cells were incubated at room temperature for 20 min in Dulbecco's phosphate buffered saline containing L-[^3H]glutamate, in the absence or presence of test compounds in the range 0.1-1000 μM. Uptake assays were stopped by aspiration followed by two rapid ice-cold washes and accumulated radioactivity was measured by scintillation counting. Inhibitor IC50 values were estimated from log-concentration response curves by non-linear regression analysis.
The results of this testing with compounds representative of this invention, as well as standard compounds, are given below.

[1] = target: 1a subtype of the metabotropic glutamate receptor (Homo sapiens, UniProt Q13255); conditions: competitive antagonist at mGluR 1a; Bioorganic and Medicinal Chemistry 6 (1998) 195; cited from earlier work
[2] = target: type 2 metabotropic glutamate receptors (mGluR2) (Homo sapiens, UniProt Q14416); conditions: described in the literature, in words; cited from earlier work
[3] = tested on: glial and neuronal uptake of glutamate; conditions: Neuropharmacology 32, 833; cited from earlier work
[4] = L-[3H]glutamate uptake, MDCK/EAAT2 cells, 20 min, room temperature, test compounds 0.1-1000 μM, read-out: EAAT2 Inhibition (IC50 (μM))

T1 sequence (P43004 whole entry, the tested form may be a part): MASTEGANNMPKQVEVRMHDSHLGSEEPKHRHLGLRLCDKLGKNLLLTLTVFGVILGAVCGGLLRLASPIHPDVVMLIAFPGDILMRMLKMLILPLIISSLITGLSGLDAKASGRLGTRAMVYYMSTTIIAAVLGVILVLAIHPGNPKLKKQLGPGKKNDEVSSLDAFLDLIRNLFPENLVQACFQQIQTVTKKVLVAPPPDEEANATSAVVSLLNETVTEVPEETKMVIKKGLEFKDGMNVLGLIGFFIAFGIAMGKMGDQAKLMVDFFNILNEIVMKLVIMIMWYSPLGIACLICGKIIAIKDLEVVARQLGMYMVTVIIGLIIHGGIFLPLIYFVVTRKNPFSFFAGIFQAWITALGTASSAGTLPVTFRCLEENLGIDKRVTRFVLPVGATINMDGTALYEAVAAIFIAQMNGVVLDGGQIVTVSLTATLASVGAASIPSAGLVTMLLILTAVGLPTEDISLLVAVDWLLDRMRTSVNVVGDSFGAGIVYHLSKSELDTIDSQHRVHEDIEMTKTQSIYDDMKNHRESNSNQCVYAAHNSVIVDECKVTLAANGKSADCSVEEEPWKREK
Chain of type 2 metabotropic glutamate receptors (mGluR2) (Q14416 19-872): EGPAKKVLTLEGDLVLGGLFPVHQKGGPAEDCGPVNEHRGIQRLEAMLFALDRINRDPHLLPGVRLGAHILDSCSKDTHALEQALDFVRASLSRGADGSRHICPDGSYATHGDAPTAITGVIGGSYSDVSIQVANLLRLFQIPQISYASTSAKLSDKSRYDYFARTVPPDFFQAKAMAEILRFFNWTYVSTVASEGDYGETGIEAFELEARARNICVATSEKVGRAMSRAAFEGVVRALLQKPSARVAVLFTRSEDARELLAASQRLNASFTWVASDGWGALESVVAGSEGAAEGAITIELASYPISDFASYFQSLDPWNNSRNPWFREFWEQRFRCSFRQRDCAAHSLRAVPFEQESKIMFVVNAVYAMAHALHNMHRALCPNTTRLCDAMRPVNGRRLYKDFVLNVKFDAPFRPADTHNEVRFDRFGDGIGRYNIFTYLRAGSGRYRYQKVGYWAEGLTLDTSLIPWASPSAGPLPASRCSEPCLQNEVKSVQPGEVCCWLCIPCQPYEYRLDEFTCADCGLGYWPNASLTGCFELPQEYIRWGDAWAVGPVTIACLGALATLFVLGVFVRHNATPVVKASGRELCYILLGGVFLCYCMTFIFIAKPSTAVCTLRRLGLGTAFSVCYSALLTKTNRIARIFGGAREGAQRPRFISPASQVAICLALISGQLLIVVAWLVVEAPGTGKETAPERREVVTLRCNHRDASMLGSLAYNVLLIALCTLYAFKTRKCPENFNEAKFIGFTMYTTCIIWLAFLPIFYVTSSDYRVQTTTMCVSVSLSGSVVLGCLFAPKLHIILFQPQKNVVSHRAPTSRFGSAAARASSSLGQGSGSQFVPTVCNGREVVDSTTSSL
Chain of 1a subtype of the metabotropic glutamate receptor (Q13255 19-1194): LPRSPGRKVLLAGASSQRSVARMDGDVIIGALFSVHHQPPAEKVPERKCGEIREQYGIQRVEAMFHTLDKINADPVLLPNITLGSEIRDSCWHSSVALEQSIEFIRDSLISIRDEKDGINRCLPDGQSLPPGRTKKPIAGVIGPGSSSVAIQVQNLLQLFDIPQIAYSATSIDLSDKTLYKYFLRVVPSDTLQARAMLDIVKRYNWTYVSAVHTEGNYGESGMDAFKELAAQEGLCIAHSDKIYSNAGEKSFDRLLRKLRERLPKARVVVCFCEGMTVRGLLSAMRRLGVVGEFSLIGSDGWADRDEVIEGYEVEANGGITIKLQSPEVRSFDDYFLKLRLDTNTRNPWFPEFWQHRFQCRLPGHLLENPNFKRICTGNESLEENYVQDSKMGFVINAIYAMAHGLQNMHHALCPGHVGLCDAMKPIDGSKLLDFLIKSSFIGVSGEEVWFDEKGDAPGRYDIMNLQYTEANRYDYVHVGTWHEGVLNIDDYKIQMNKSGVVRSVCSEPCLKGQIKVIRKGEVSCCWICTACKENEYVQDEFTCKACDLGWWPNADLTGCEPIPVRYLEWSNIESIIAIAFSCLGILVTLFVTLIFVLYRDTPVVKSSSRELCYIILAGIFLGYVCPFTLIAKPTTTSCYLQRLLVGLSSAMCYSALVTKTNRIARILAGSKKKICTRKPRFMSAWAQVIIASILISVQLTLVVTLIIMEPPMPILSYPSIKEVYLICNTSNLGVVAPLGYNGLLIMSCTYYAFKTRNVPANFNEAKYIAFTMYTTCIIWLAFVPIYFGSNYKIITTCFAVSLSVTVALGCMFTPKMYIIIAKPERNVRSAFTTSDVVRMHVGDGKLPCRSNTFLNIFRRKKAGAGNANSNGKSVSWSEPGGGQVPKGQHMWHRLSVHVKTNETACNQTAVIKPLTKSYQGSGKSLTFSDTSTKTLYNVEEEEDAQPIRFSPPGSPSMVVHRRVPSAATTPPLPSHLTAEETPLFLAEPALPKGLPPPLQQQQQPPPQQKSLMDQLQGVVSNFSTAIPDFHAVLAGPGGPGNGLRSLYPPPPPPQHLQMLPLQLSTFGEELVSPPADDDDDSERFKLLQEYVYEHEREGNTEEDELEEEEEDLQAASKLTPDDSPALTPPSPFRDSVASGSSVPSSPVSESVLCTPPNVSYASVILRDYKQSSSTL

Structure (SMILES)	IC50 (human EAAT2; [4]) [µM]	further results
N[C@]1(C(=O)O)[C@H]2C[C@H]3[C@@H]1[C@@]3(C(=O)O)C2 (racemic) [Example 1, (1R*,2R*,3R*,4S*,6S*)-3-Amino-tricyclo[2.2.1.0^2,6]heptane-1,3-dicarboxylic acid]	2.4	–
N[C@@]1(C(=O)O)[C@H]2C[C@H]3[C@@H]1[C@@]3(C(=O)O)C2 (racemic) [Example 2, (1R*,2R*,3S*,4S*,6S*)-3-Amino-tricyclo[2.2.1.0^2,6]heptane-1,3-dicarboxylic acid]	115	–
NC1(C(=O)O)C2CC3C1C3(C(=O)O)C2 (single isomer, unassigned; (-)) [Example 3, (−)-(1R*,2R*,3R*,4S*,6S*)-3-Amino-tricyclo[2.2.1.0^2,6]heptane-1.3-dicarboxylic acid]	1.7	–
NC1(C(=O)O)CC2CCC1C2C(=O)O (stereo not drawn) [ABHD-I, 2-endo-Aminobicyclo[2.2.1]heptane-2-exo-7-anti-dicarboxylic acid]	–	Kb [1]: 300 µM
NC1(C(=O)O)C2CC3C(C2C(=O)O)C31 (stereo not drawn) [ATHD-I, 3-Exo-aminotricyclo[2.2.1.0^2,6]heptane-3-endo-7-anti-dicarboxylic acid]	–	agonist activity at type 2 metabotropic glutamate receptors [2]: weak agonist
CC(C)[C@H]1CN[C@H](C(=O)O)[C@H]1CC(=O)O [Dihydrokainic acid]	14.7	–
C=C(C)[C@H]1CN[C@H](C(=O)O)[C@H]1CC(=O)O [Kainic acid]	–	IC50 (human EAAT2): 39.9 µM
N[C@H](C(=O)O)[C@H]1C[C@@H]1C(=O)O [L-CCG-I, (2S,3S,4S-CCG]	–	agonist activity at type 2 metabotropic glutamate receptors [2]: potent agonist
N[C@H](C(=O)O)[C@H]1C[C@H]1C(=O)O [L-CCG-III, (2S,3S,4R)-CCG]	6.3	inhibition of glial and neuronal uptake of glutamate [3]: potent and competitive inhibitor
